Test results from patent US9353150B2, “Substituted pyrazino[1′,2′:1 ,5]pyrrolo[2,3-b]-indole-1,4-diones for cancer treatment” (Massachusetts Institute of Technology, priority 2012, dated 2016).
Where two headings read alike, the source gives them in different places.

Legend:
[1] = tested on: U-937 (hystiocytic lymphoma); assay: 72-hour IC50 determination for non-adherent cells using MTS; type: cell-based, human
Procedure: (§1) Certain synthesized compounds were screened for their ability to induce death in two human cancer cell lines: U-937 (leukemic monocyte lymphoma) and HeLa (cervical cancer).
(§2) Cells were grown in media supplemented with fetal bovine serum (FBS) and antibiotics ([…]). Specifically, experiments were performed using the following cell lines and media compositions: U-937, HeLa, H460, and 786-O (RPMI-1640+10% FBS), and MCF7 (EMEM+10% FBS). Cells were incubated at 37° C. in a 5% CO2, 95% humidity atmosphere.
(§3) In a 96-well plate, compounds were pre-added as DMSO stocks in triplicate to achieve a final concentration of 1%. DMSO and cell-free wells served as the live and dead control, respectively. U-937 (5,000 cells/well) cells were distributed in 100 μL media to the compound-containing plate. After 72 hours, cell viability was assessed by adding 20 μL of a PMS/MTS solution (Cory, A. H.; Owen, T. C.; Barltrop, J. A.; Cory, J. G. Cancer Commun. 1991, 3, 207) to each well, allowing the dye to develop at 37° C. until the live control had processed MTS, and reading the absorbance at λ=490 nm. IC50 values were determined from three or more independent experiments using TableCurve (San Jose, Calif.).

[2] = tested on: HeLa (cervical carcinoma); assay: 72-hour IC50 determination for adherent cells using sulforhodamine B (SRB); type: cell-based, human
Procedure: as §1, §2
(§4) Adherent cells (HeLa, H460, 786-O, and MCF7) were added into 96-well plates (5,000 cells/well for HeLa cell line; 2,000 cells/well for H460, 786-O, and MCF7 cell lines) in 100 μL media and were allowed to adhere for 2-3 hours. Compounds were solubilized in DMSO as 100× stocks, added directly to the cells (100 μL final volume), and tested over a range of concentrations in triplicate (1% DMSO final) on a half-log scale. Concentrations tested ranged from […] to 10 μM, depending on the potency of the compound. DMSO and cell-free wells served as the live and dead control, respectively. After 72 hours of continuous exposure, the plates were evaluated using the SRB colorimetric assay as described previously (Vichai, V.; Kirtikara, K. Nature Prot. 2006, 1, 1112). Briefly, media was removed from the plate, and cells were fixed by the addition of 100 μL cold 10% trichloroacetic acid in water. After incubating at 4° C. for an hour, the plates were washed in water and allowed to dry. Sulforhodamine B was added as a 0.057% solution in 1% acetic acid (100 μL), and the plates were incubated at room temperature for 30 minutes, washed in 1% acetic acid, and allowed to dry. The dye was solubilized by adding 10 mM Tris base solution (pH 10.5, 200 μL) and incubating at room temperature for 30 minutes. Plates were read at λ=510 nm. IC50 values were determined from three or more independent experiments using TableCurve (San Jose, Calif.).

[3] = tested on: human cancer cell lines; assay: Anticancer activity in human cancer cell lines, not tied to one cell line; type: cell-based; conditions: for anticancer activity, in words: human cancer cell lines, 72-hour exposure
Procedure: as §1
Certain provided compounds were tested in culture against a panel of three supplementary human cancer cell lines representing three additional tumor histologies (H460, lung carcinoma; 786-O, renal carcinoma; MCF-7, breast carcinoma). As shown in Table E1-2, the ETPs retain their potency across the cell lines. In some embodiments, a provided compound is active in all cell lines. In some embodiments, a provide compound can be used to selectively target certain cells and/or cancers. […] Without the intention to be limited, Applicant notes that certain cell lines could be more sensitive to provided compounds; for example, U-937 and HeLa are slightly more sensitive to the ETPs than the other three cell lines.
as §4, §3

[4] = 72-hour exposure, MTS, error is standard deviation of the mean, n ≧ 3, read-out: U-937, 72-hour IC50 (Table E1-1)
[5] = 72-hour exposure, SRB, error is standard deviation of the mean, n ≧ 3, read-out: HeLa, 72-hour IC50 (Table E1-1)
[6] = Homo sapiens, U-937, 72-hour exposure, MTS, error is standard deviation of the mean, n ≧ 3, read-out: U-937, 72-hour IC50 (Table E1-1)
[7] = Homo sapiens, HeLa, 72-hour exposure, SRB, error is standard deviation of the mean, n ≧ 3, read-out: HeLa, 72-hour IC50 (Table E1-1)
[8] = Homo sapiens, U-937, 72 h, read-out: U-937, 72-hour IC50 (Table E1-1)
[9] = Homo sapiens, HeLa, 72 h, read-out: HeLa, 72-hour IC50 (Table E1-1)

SMILES	IC50 [1, 4] [µM]	IC50 [2, 5] [µM]	further results
CN1CC(=O)N2C(CC3(c4c[nH]c5ccccc45)c4ccccc4N(S(=O)(=O)c4ccccc4)C23)C1=O (centres unmarked) [Compound 59, C3-(indol-3′-yl)-pyrrolidinoindolne]	> 10	> 10	
COCS[C@H]1C(=O)N2[C@H]3Nc4ccccc4[C@@]3(c3c[nH]c4ccccc34)C[C@]2(SCOC)C(=O)N1C [Compound 41, C3-(Indol-3′-yl)bis(S-MOM)ether]			IC50 [1, 6]: > 10 µM; IC50 [2, 7]: > 10 µM; IC50 ([3]; Homo sapiens, cell line not named in the sentence (U-937 and HeLa screened), read-out: IC50 (did not display any anticancer activity)): > 10 µM
CCC[C@]12C[C@@]34SC(=S)S[C@@](C)(C(=O)N3C1N(S(=O)(=O)c1ccccc1)c1ccccc12)N(C)C4=O (some centres unmarked) [Compound 65, C3-Propyl dithiepanethiones]			IC50 [1, 6]: > 1 µM; IC50 [2, 7]: > 1 µM; anticancer activity, in words [3]: substantially lower potencies
CN1C(=O)[C@]2(O)C[C@]3([C@]45C[C@@]6(O)C(=O)N(C)[C@](C)(O)C(=O)N6[C@H]4N(S(=O)(=O)c4ccccc4)c4ccccc45)c4ccccc4N(S(=O)(=O)c4ccccc4)[C@@H]3N2C(=O)[C@@]1(C)O [Compound 22]	> 1	> 10	
CCCC12CC34SSC(C)(C(=O)N3C1N(S(=O)(=O)c1ccccc1)c1ccccc12)N(C)C4=O (stereo not drawn) [Compound 63, α-C3-Propyl epidithiodiketopiperazine]			IC50 ([1]; read-out: U-937, 72-hour IC50 (Table E1-1), 72-hour exposure, MTS, error is standard deviation of the mean, n ≧ 3): > 1 µM; IC50 ([2]; read-out: HeLa, 72-hour IC50 (Table E1-1), 72-hour exposure, SRB, error is standard deviation of the mean, n ≧ 3): > 1 µM; anticancer activity, in words [3]: inactive
CN1C(=O)[C@@]2(S)C[C@]3(c4c[nH]c5ccccc45)c4ccccc4N(S(=O)(=O)c4ccccc4)[C@@H]3N2C(=O)[C@H]1O [Compound 48, C3-(Indol-3′-yl) C11-thiohemiaminal]			IC50 [1, 6]: > 10 µM; IC50 [2, 7]: > 10 µM
CN1C(=O)[C@]23C[C@]4(c5c[nH]c6ccccc56)c5ccccc5N(S(=O)(=O)c5ccccc5)[C@@H]4N2C(=O)[C@@]1(C)SS3 [Compound 62, C3-(Indol-3′-yl) epidithiodiketopiperazines]	> 1	> 1	anticancer activity, in words [3]: inactive
CC(=O)OC[C@@]1(OC(=O)C(C)C)C(=O)N2[C@H]3N(S(=O)(=O)c4ccccc4)c4ccccc4[C@@]3([C@]34C[C@]5(SSSC(c6ccccc6)(c6ccccc6)c6ccccc6)C(=O)N(C)[C@](COC(C)=O)(OC(=O)C(C)C)C(=O)N5[C@H]3N(S(=O)(=O)c3ccccc3)c3ccccc34)C[C@]2(SSSC(c2ccccc2)(c2ccccc2)c2ccccc2)C(=O)N1C [Compound 19, Dimeric bis(triphenylmethanetrisulfide)]	> 10	> 10	
CC(C)C(=O)O[C@@H]1C(=O)N2[C@H]3N(S(=O)(=O)c4ccccc4)c4ccccc4[C@@]3(c3c[nH]c4ccccc34)C[C@]2(SC(=O)C(C)C)C(=O)N1C [Compound 50]	> 1	> 1	
CN1C(=O)[C@]2(O)C[C@]3([C@]45C[C@@]6(O)C(=O)N(C)[C@](C)(O[Si](C)(C)C(C)(C)C)C(=O)N6[C@H]4N(S(=O)(=O)c4ccccc4)c4ccccc45)c4ccccc4N(S(=O)(=O)c4ccccc4)[C@@H]3N2C(=O)[C@@]1(C)O[Si](C)(C)C(C)(C)C [Compound 23]	> 1	> 10	
CN1C(=O)[C@@]23C[C@]4(c5cn(C(=O)OC(C)(C)C)c6ccccc56)c5ccccc5N(S(=O)(=O)c5ccccc5)[C@@H]4N2C(=O)[C@@H]1SS3 [Compound 24, C3-(N-Boc-indol-3′-yl) epidithiodiketopiperazine]			IC50 ([1]; Homo sapiens, U-937, 72 h, read-out: IC50 (U-937)): 0.0028 to 0.0148 µM; IC50 [1, 8]: 0.0059 ± 0.0014 µM; IC50 [2, 9]: 0.075 ± 0.01 µM; IC50 ([2]; Homo sapiens, HeLa, 72 h, read-out: IC50 (HeLa)): 0.022 to 0.075 µM
CS[C@H]1C(=O)N2[C@H]3N(S(=O)(=O)c4ccccc4)c4ccccc4[C@@]3(c3c[nH]c4ccccc34)C[C@]2(SC)C(=O)N1C [Compound 39]	> 10	> 10	
COCCOCS[C@H]1C(=O)N2[C@H]3N(S(=O)(=O)c4ccccc4)c4ccccc4[C@@]3(c3cn(C(=O)OC(C)(C)C)c4ccccc34)C[C@]2(S)C(=O)N1C [Compound 47, C3-(N-Boc-indol-3′-yl) S15-MEM ether]	> 10	> 10	
CC(C)C(=O)O[C@@H]1C(=O)N2[C@H]3Nc4ccccc4[C@@]3(c3c[nH]c4ccccc34)C[C@]2(SC(=O)C(C)C)C(=O)N1C [Compound 51]	> 10	> 1	
CC(C)[Si](O[C@@H]1C(=O)N2[C@H]3Nc4ccccc4[C@@]3(c3c[nH]c4ccccc34)C[C@@]2(O)C(=O)N1C)(C(C)C)C(C)C [Compound 58]	> 10	> 10	
COCCOCS[C@H]1C(=O)N2[C@H]3N(S(=O)(=O)c4ccccc4)c4ccccc4[C@@]3(c3cn(C(=O)OC(C)(C)C)c4ccccc34)C[C@]2(SCOCCOC)C(=O)N1C [Compound 42, C3-(N-Boc-indol-3′-yl)bis(S-MEM)ether]	> 10	> 10	
CS[C@H]1C(=O)N2[C@H]3Nc4ccccc4[C@@]3(c3c[nH]c4ccccc34)C[C@]2(SC)C(=O)N1C [Compound 7, (+)-gliocladin B]	> 10	> 10	
CN1C(=O)C(=O)N2C(=C[C@]3(c4c[nH]c5ccccc45)c4ccccc4N[C@H]23)C1=O [Compound 52, (+)-Gliocladin C]			IC50 [1, 8]: > 10 µM; IC50 [2, 9]: > 10 µM
COCS[C@]12C[C@]3(c4cn(C(=O)OC(C)(C)C)c5ccccc45)c4ccccc4N(S(=O)(=O)c4ccccc4)[C@@H]3N1C(=O)CN(C)C2=O [Compound 49]	> 10	> 10	
CN1CC(=O)N2[C@@H](C[C@]3(Br)c4ccccc4N(S(=O)(=O)c4ccccc4)[C@H]23)C1=O [Compound 54]			IC50 [1, 6]: > 10 µM; IC50 [2, 7]: > 10 µM
C[C@H]1C(=O)N2[C@@H](C[C@]3([C@]45C[C@H]6C(=O)N(C)[C@@H](C)C(=O)N6[C@H]4N(S(=O)(=O)c4ccccc4)c4ccccc45)c4ccccc4N(S(=O)(=O)c4ccccc4)[C@H]23)C(=O)N1C [Compound 21]	> 1	> 10	
CC(=O)OC[C@@]1(OC(=O)C(C)C)C(=O)N2[C@H]3Nc4ccccc4[C@@]3([C@]34C[C@]5(SSSC(c6ccccc6)(c6ccccc6)c6ccccc6)C(=O)N(C)[C@](COC(C)=O)(OC(=O)C(C)C)C(=O)N5[C@H]3Nc3ccccc34)C[C@]2(SSSC(c2ccccc2)(c2ccccc2)c2ccccc2)C(=O)N1C [Compound 20]	> 10	> 10	
CC(C)[Si](O[C@@H]1C(=O)N2[C@H]3N(S(=O)(=O)c4ccccc4)c4ccccc4[C@@]3(c3c[nH]c4ccccc34)C[C@@]2(O)C(=O)N1C)(C(C)C)C(C)C [Compound 57]	> 10	> 10	
CN1C(=O)[C@]2(O)C[C@]3(c4c[nH]c5ccccc45)c4ccccc4N(S(=O)(=O)c4ccccc4)[C@@H]3N2C(=O)[C@H]1O [Compound 56, C3-(Indol-3′-yl) hexacyclic Diol]	> 10	> 10	
CC(C)[Si](O[C@@H]1C(=O)N2C(=C[C@]3(c4c[nH]c5ccccc45)c4ccccc4N(C(=O)C(F)(F)F)[C@H]23)C(=O)N1C)(C(C)C)C(C)C [Compound 53]			IC50 [1, 6]: > 10 µM; IC50 [2, 7]: > 10 µM
